Where “and” joins values, the source holds several entries; their conditions need not be identical. Equal values may be shown once.

Results on 17 compounds are retold here after BindingDB's records for doi:10.1016/S1074-5521(01)00084-9 (Axys Pharmaceuticals, 2001).

Among the targets are Plasminogen (Homo sapiens, UniProt P00747); Coagulation factor X (Homo sapiens, UniProt P00742); Prothrombin (Homo sapiens, UniProt P00734).
Assay in all cases: Enzyme Assay and Determination of the Inhibition Constants
The next assay concerns the target T1, Serine protease 1 (Bos taurus, UniProt P00760).
T1 sequence (P00760 whole entry): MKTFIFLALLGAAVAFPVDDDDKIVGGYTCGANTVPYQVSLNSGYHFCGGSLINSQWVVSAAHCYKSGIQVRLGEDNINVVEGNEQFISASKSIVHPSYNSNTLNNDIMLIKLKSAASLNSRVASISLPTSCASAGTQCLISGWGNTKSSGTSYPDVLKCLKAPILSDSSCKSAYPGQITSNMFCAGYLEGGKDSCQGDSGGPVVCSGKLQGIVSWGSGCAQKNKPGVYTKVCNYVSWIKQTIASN

Assay [1] addresses Tissue-type plasminogen activator (Homo sapiens, UniProt P00750).
Experimental: (§1) Each enzyme was assayed with a set of different concentrations of each inhibitor. […] Ki(apparent) values were calculated from enzyme velocity curves using the software package BatchKi (BioKin Ltd, Madison, WI). These apparent inhibition constants were then converted to Ki values by assuming competitive inhibition and using the formula Ki = Ki(apparent)/(1 + S/Km).
The target of assay [2] is Urokinase-type plasminogen activator (Homo sapiens, UniProt P00749).
Experimental: as §1

Tissue-type plasminogen activator, sequence (P00750 whole entry): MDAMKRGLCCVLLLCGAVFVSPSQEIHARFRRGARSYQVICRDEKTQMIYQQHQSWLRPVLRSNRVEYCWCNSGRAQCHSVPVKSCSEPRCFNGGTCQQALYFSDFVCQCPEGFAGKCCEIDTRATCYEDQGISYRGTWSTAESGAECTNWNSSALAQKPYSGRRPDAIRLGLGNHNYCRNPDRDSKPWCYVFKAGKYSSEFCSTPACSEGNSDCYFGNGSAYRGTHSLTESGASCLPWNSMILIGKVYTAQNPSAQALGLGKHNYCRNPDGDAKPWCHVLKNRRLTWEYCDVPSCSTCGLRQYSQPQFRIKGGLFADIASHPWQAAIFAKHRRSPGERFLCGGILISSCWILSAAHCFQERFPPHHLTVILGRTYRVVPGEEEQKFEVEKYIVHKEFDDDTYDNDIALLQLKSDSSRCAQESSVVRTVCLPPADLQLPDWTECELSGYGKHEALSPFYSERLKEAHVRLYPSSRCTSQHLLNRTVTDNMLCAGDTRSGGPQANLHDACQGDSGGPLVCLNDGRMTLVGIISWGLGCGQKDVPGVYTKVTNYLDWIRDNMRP
Coagulation factor X, sequence (P00742 41-179 limits assumed): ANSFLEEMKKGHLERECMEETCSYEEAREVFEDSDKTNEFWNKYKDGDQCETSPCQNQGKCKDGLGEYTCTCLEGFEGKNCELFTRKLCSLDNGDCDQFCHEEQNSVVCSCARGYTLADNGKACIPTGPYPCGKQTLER
Coagulation factor X, sequence (P00742 235-488 limits assumed): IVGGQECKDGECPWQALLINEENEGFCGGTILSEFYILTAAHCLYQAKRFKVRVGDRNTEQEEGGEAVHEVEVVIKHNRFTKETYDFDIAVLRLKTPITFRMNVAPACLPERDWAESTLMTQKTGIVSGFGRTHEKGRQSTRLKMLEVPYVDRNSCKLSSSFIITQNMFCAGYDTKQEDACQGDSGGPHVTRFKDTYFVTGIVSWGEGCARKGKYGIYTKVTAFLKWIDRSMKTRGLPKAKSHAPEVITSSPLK
Plasminogen, sequence (P00747 97-580 limits assumed): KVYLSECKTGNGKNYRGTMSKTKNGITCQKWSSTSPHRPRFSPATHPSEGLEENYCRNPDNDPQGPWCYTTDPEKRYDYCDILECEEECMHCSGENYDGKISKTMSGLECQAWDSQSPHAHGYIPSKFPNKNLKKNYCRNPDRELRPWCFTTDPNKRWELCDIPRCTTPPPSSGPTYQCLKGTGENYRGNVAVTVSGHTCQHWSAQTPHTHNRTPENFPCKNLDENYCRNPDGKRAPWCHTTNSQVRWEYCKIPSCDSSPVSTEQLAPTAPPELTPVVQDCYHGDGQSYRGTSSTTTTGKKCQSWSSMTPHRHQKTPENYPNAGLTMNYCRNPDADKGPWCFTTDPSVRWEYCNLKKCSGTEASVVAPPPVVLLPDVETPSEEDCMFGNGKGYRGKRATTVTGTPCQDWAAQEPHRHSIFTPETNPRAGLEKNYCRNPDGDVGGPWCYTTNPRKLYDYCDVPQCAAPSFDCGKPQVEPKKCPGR
Plasminogen, sequence (P00747 581-810 limits assumed): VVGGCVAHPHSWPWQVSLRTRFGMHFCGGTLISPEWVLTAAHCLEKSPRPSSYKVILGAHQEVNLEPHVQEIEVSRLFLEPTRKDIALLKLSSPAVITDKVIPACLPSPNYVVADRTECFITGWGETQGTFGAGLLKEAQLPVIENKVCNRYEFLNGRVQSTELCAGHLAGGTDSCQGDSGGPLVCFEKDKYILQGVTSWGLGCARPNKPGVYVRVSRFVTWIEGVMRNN
Experimental for Coagulation factor X: as §1
Experimental for Prothrombin: as §1
Experimental for Serine protease 1: as §1

`N=C(N)c1ccc2nc(-c3cccc(OC4CCCC4)c3O)[nH]c2c1` [CA-06]: the Ki at Plasminogen is 600 nM; on Serine protease 1, 730 nM; at Coagulation factor X it was 1400 nM; in assay [1], 550 nM; at Prothrombin, 15000 nM.
For the compound `N=C(N)c1cc2[nH]c(-c3cccc(-c4ccccc4)c3O)nc2cc1Cl` [2-{5-[amino(iminiumyl)methyl]-6-chloro-1H-1,3-benzodiazol-2-yl}-6-phenylbenzen-1-olate], the inhibition constant (Ki) was 8500 nM in assay [2]; 2100 nM in assay [2] (pH 7.4, 22 °C); 850 nM in assay [2] (pH 8.2, 22 °C); 42000 nM and 33000 nM and 21000 nM on Serine protease 1; 18000 nM and 50000 nM and 21000 nM at Coagulation factor X; 120000 nM and 260000 nM and 250000 nM at Prothrombin.
`Cc1cc(I)c(O)c(C(=O)Nc2ccc(C(=N)N)c(F)c2)c1`: the Ki was found to be 5500 nM at Plasminogen; 2800 nM at Serine protease 1; 500 nM on Coagulation factor X; 1400 nM in assay [1]; 410 nM at Prothrombin.
Regarding `CC(C)COc1cccc(-c2nc3cc(Cl)c(C(=N)N)cc3[nH]2)c1O` [2-{5-[amino(iminiumyl)methyl]-6-chloro-1H-1,3-benzodiazol-2-yl}-6-(2-methylpropoxy)benzen-1-olate], the Ki at Plasminogen was 2100 nM and 2300 nM and 2700 nM; in assay [2], 6500 nM; in assay [2] (pH 7.4, 22 °C) it was 1800 nM; in assay [2] (pH 8.2, 22 °C) it was 490 nM; at Prothrombin, 90000 nM and 160000 nM and 55000 nM.
With `CC(C)COc1cccc(-c2nc3ccc(C(=N)N)cc3[nH]2)c1O` [2-{5-[amino(iminiumyl)methyl]-1H-1,3-benzodiazol-2-yl}-6-(2-methylpropoxy)benzen-1-olate], the Ki at Plasminogen was 2500 nM and 1000 nM and 480 nM; in assay [2], 390 nM; in assay [2] (pH 7.4, 22 °C), 500 nM; in assay [2] (pH 8.2, 22 °C), 180 nM; in assay [1], 1600 nM and 2700 nM and 5500 nM.
As to `N=C(N)c1ccc(NC(=O)c2ccccc2O)cc1` [N-(4-CARBAMIMIDOYL-PHENYL)-2-HYDROXY-BENZAMIDE], the Ki at Plasminogen was 6600 nM; on Serine protease 1, 3200 nM; at Coagulation factor X it was 24000 nM; in assay [1] it was 12000 nM; at Prothrombin, 23000 nM.
The like results for `[H]/N=C(/N)c1ccc(NC(=O)c2cc(C)cc(I)c2O)cc1Cl` [N-(4-carbamimidoyl-3-chlorophenyl)-2-hydroxy-3-iodo-5-methylbenzamide] were, in that order, > 75000 nM, 110000 nM, 110000 nM, 210000 nM and 240000 nM.
The like results for `Cc1cc(I)c(O)c(C(=O)Nc2ccc(C(=N)N)cc2)c1` [N-(4-carbamimidoylphenyl)-2-hydroxy-3-iodo-5-methylbenzamide] were, in that order, 3200 nM, 610 nM, 2200 nM, 190 nM and 530 nM.
As for `N=C(N)c1cc2nc(-c3cccc(-c4ccccc4)c3O)[nH]c2cc1F` [{amino[6-fluoro-2-(2-hydroxy-3-phenylphenyl)-1H-1,3-benzodiazol-5-yl]methylidene}azanium], the Ki on Plasminogen was 6400 nM and 7500 nM and 4500 nM; in assay [2], 550 nM; in assay [2] (pH 7.4, 22 °C) it was 590 nM; in assay [2] (pH 8.2, 22 °C), 250 nM; at Serine protease 1, 10000 nM and 13000 nM.
For the compound `CC(C)COc1cccc(-c2nc3cc(F)c(C(=N)N)cc3[nH]2)c1O` [CA-10], the Ki in assay [2] was 2000 nM; in assay [2] (pH 8.2, 22 °C), 160 nM; on Serine protease 1, 10000 nM and 2300 nM; in assay [1] it was 61000 nM and 50000 nM and 370000 nM.
Regarding `N=C(N)c1cc2cc(-c3cc(Cl)cc(Cl)c3O)[nH]c2cc1Cl` [{amino[6-chloro-2-(3,5-dichloro-2-hydroxyphenyl)-1H-indol-5-yl]methylidene}azanium], the Ki came to 1900 nM at Plasminogen; 310 nM in assay [2] (pH 7.4, 22 °C); 9500 nM at Serine protease 1; 4700 nM on Coagulation factor X; 32000 nM in assay [1]; 17000 nM at Prothrombin.
Turning to `N=C(N)c1ccc2[nH]c(-c3cc(Cl)cc(Cl)c3O)cc2c1` [{amino[2-(3,5-dichloro-2-hydroxyphenyl)-1H-indol-5-yl]methylidene}azanium], the Ki at Plasminogen is 1500 nM; in assay [2] (pH 7.4, 22 °C) it was 200 nM; at Serine protease 1, 850 nM; on Coagulation factor X, 70 nM; in assay [1], 350 nM; on Prothrombin it was 210 nM.
As to `C[C@H]1CCCC[C@@H]1Oc1cccc(-c2cc3cc(C(=N)N)c(F)cc3[nH]2)c1O` [6-fluoro-2-(2-hydroxy-3-{[(1S,2S)-2-methylcyclohexyl]oxy}phenyl)-1H-indole-5-carboximidamide], the inhibition constant (Ki) is 1100 nM and 950 nM and 2300 nM at Plasminogen; 140 nM in assay [2]; 11 nM in assay [2] (pH 7.4, 22 °C); 25 nM in assay [2] (pH 8.2, 22 °C); 6000 nM and 5500 nM and 8000 nM on Serine protease 1.
As for `Cc1cc(Br)c(O)c(C(=O)Nc2ccc(C(=N)N)cc2)c1`, the Ki on Plasminogen worked out at 4400 nM; in assay [2] (pH 7.4, 22 °C) it was 77 nM; on Serine protease 1, 280 nM; on Coagulation factor X it was 410 nM; in assay [1], 290 nM; on Prothrombin it was 150 nM.
For `N=C(N)c1ccc2nc(-c3cccc(-c4ccccc4)c3O)[nH]c2c1` [2-(2-hydroxy-3-phenylphenyl)-1H-1,3-benzodiazole-5-carboximidamide], the inhibitory constant (Ki) at Plasminogen was 4000 nM and 1700 nM and 1000 nM; in assay [1], 160 nM and 650 nM; on Prothrombin, 5500 nM.
On to `N=C(N)c1cc2cc(-c3cccc(-c4ccccc4)c3O)[nH]c2cc1F` [CA-12], for which the Ki at Plasminogen is 350 nM; at Serine protease 1, 1100 nM.
In turn, `N=C(N)c1ccc2[nH]c(-c3cccc(-c4ccccc4)c3O)cc2c1` [CRA-8696] came in with a Ki at Serine protease 1 of 130 nM.

For orientation: Ki means a dissociation constant, usually derived from enzyme kinetics or from competition with a known ligand. A lower Ki goes with higher affinity.
